Where two headings read alike, the source gives them in different places.
Tests used:
CCRF-CEM = assay: NCI 60 five-dose screen CCRF-CEM; format: cell-based; conditions: Homo sapiens, five-dose
EKVX = assay: NCI 60 five-dose screen EKVX; format: cell-based; conditions: Homo sapiens, five-dose
NCI-H226 = assay: NCI 60 five-dose screen NCI-H226; format: cell-based; conditions: Homo sapiens, five-dose
K-562 = assay: NCI 60 five-dose screen K-562; format: cell-based; conditions: Homo sapiens, K562, five-dose
NCI-H460 = assay: NCI 60 five-dose screen NCI-H460; format: cell-based; conditions: Homo sapiens, five-dose
BT-549 = assay: NCI 60 five-dose screen BT-549; format: cell-based; conditions: Homo sapiens, five-dose
HOP-92 = assay: NCI 60 five-dose screen HOP-92; format: cell-based; conditions: Homo sapiens, five-dose
full NCI 60 cell panel = assay: NCI 60 Cell One-dose screen; format: cell-based, human; conditions: single high dose 10^−5 M, NCI 60 panel
Description: Compounds were submitted to the NCI 60 Cell screen and tested at a single high dose (10^−5 M) in the full NCI 60 cell panel (see the following reference for details of using NCI 60 human tumor cell lines for screening anticancer drugs: Shoemaker R H. The NCI60 human tumor cell line anticancer drug screen. Nature Rev Cancer 2006; 6: 813-23). The One-dose data is reported as a mean graph of the percent growth of treated cells. The number reported for the One-dose assay is growth relative to the no-drug control, and relative to the time zero number of cells. This allows detection of both growth inhibition (values between 0 and 100) and lethality (values less than 0). For example, a value of 100 means no growth inhibition. A value of 40 would mean 60% growth inhibition. A value of 0 means no net growth over the course of the experiment. A value of −40 would mean 40% lethality. A value of −100 means all cells are dead. FIGS. 1-8 show the mean graph of percent growth against the NCI-60 cell panel for NUCC-0226674, NUCC-0226679, NUCC-0226680, NUCC-0226683, NUCC-0226689, NUCC-0226694, NUCC-0226695, and NUCC-0226698.

RXF 393 = assay: NCI 60 five-dose screen RXF 393; format: cell-based; conditions: Homo sapiens, five-dose
NCI-H522 = assay: NCI 60 five-dose screen NCI-H522; format: cell-based; conditions: Homo sapiens, five-dose
786-0 = assay: NCI 60 five-dose screen 786-0; format: cell-based; conditions: Homo sapiens, five-dose
[1] = test system: MV-4-11 acute myeloid leukemia cells; assay: CellTiter-Glo 2.0 cell viability, MV-4-11; format: cell-based; conditions: Homo sapiens
Description: 2019 October; 94(4): 1813-1823.
Cell viability was assessed using the CellTiter-Glo 2.0 assay from Promega, which yields a signal proportional to the amount of ATP present in a cell population. Compounds were first dispensed into empty 96-well flat-bottom tissue culture-treated plates (Corning) using an Echo550. MV4-1 cells were diluted to a density of 0.1 million cells per ml, pipetted onto the compounds at a density of 1,000 cells per well for U937 and 3,000 cells per well for MV4-11, mixed, and incubated for 3 days at 37° C. with 5% C02. After incubating, 5 μl of cells from each well were added to 5 μl of CellTiter-Glo 2.0 reagent in a384-well white ProxiPlate (PerkinElmer), incubated for 20 minutes at ambient temperature, and luminescence was analyzed on an EnSpire plate reader. Graphing and regression analysis was performed in Graphpad Prism.

MCF7 = assay: NCI 60 five-dose screen MCF7; format: cell-based; conditions: Homo sapiens, five-dose
OVCAR-8 = assay: NCI 60 five-dose screen OVCAR-8; format: cell-based; conditions: Homo sapiens, five-dose
HCT-15 = assay: NCI 60 five-dose screen HCT-15; format: cell-based; conditions: Homo sapiens, five-dose
NCI/ADR-RES = assay: NCI 60 five-dose screen NCI/ADR-RES; format: cell-based; conditions: Homo sapiens, five-dose
IGROV1 = assay: NCI 60 five-dose screen IGROV1; format: cell-based; conditions: Homo sapiens, IGROV-1, five-dose
SF-268 = assay: NCI 60 five-dose screen SF-268; format: cell-based; conditions: Homo sapiens, five-dose
CAKI-1 = assay: NCI 60 five-dose screen CAKI-1; format: cell-based; conditions: Homo sapiens, five-dose
HCT-116 = assay: NCI 60 five-dose screen HCT-116; format: cell-based; conditions: Homo sapiens, five-dose
[2] = read-out: LC50 (the source's name)
[3] = read-out: LC50 (the source's name) (converted)

`FC(F)(F)c1cc2c(Cl)ncnc2n1CCC1CCOCC1` [NUCC-0226674] was tested, and the GI50 (CCRF-CEM) was 1.41 µM, the IC50 (CCRF-CEM) was 2.51 µM and the IC (TGI) (CCRF-CEM) was 4.57 µM. It also gave a CC50 (CCRF-CEM; [2]) of at least 100 µM, a GI50 (EKVX) of 12.6 µM and an IC50 (EKVX) of 25.7 µM. The IC (TGI) (EKVX) was 28.2 µM, the CC50 (EKVX; [3]) was 64.6 µM and the GI50 (NCI-H226) was 13.8 µM. It also gave an IC50 (NCI-H226) of 30.2 µM, an IC (TGI) (NCI-H226) of 28.8 µM and a CC50 (NCI-H226; [3]) of 58.9 µM. For the same compound, the GI50 (K-562) was 2.82 µM, the IC50 (K-562) was 3.63 µM and the IC (TGI) (K-562) was 8.71 µM. It also gave a CC50 (K-562; [2]) of at least 100 µM, a GI50 (NCI-H460) of 2.4 µM and an IC50 (NCI-H460) of 3.55 µM. For the same compound, the IC (TGI) (NCI-H460) was 5.62 µM, the CC50 (NCI-H460; [3]) was 22.4 µM and the GI50 (BT-549) was 10.2 µM. The IC50 (BT-549) was 23.4 µM, the IC (TGI) (BT-549) was 22.4 µM and the CC50 (BT-549; [3]) was 50.1 µM. The GI50 (HOP-92) was 13.8 µM, the IC50 (HOP-92) was 34.7 µM and the IC (TGI) (HOP-92) was 32.4 µM. The CC50 (HOP-92; [3]) was 75.9 µM, the “growth inhibition in the One-Dose Screen” value (full NCI 60 cell panel) was “significant growth inhibition” and the GI50 (RXF 393) was 8.71 µM. The IC50 (RXF 393) was 24 µM, the IC (TGI) (RXF 393) was 21.9 µM and the CC50 (RXF 393; [3]) was 51.3 µM. It also gave a GI50 (NCI-H522) of 1.7 µM, an IC50 (NCI-H522) of 3.39 µM and an IC (TGI) (NCI-H522) of 3.72 µM. The CC50 (NCI-H522; [3]) was 8.13 µM, the GI50 (786-0) was 16.2 µM and the IC50 (786-0) was 28.2 µM. It also gave an IC (TGI) (786-0) of 32.4 µM, a CC50 (786-0; [3]) of 64.6 µM and an IC50 ([1]; MV4-11, 72 h, MV-4-11 cells, 3 days, CellTiter-Glo 2.0, read-out: IC50 (uM) [Cell Type: MV-4-11]) of 1.29 µM. The IC50 ([1]; MV4-11, bound stated in text, read-out: IC50 against MV-4-11 acute myeloid leukemia cells) was under 2 µM, the GI50 (MCF7) was 11.5 µM and the IC50 (MCF7) was 19.1 µM. For the same compound, the IC (TGI) (MCF7) was 36.3 µM, the CC50 (MCF7; [3]) was at least 100 µM and the GI50 (OVCAR-8) was 2.45 µM. For the same compound, the IC50 (OVCAR-8) was 3.63 µM, the IC (TGI) (OVCAR-8) was 7.41 µM and the CC50 (OVCAR-8; [3]) was 63.1 µM. The GI50 (HCT-15) was 2.95 µM, the IC50 (HCT-15) was 3.8 µM and the IC (TGI) (HCT-15) was 11 µM. It also gave a CC50 (HCT-15; [3]) of 41.7 µM, a GI50 (NCI/ADR-RES) of 17 µM and an IC50 (NCI/ADR-RES) of 30.9 µM. For the same compound, the IC (TGI) (NCI/ADR-RES) was 35.5 µM, the CC50 (NCI/ADR-RES; [3]) was 72.4 µM and the GI50 (IGROV1) was 1.78 µM. The IC50 (IGROV1) was 3.16 µM, the IC (TGI) (IGROV1) was 3.47 µM and the CC50 (IGROV1; [3]) was 6.76 µM. It also gave a GI50 (SF-268) of 2.45 µM, an IC50 (SF-268) of 4.57 µM and an IC (TGI) (SF-268) of 7.24 µM. The CC50 (SF-268; [3]) was 44.7 µM, the GI50 (CAKI-1) was 14.5 µM and the IC50 (CAKI-1) was 26.9 µM. It also gave an IC (TGI) (CAKI-1) of 30.2 µM, a CC50 (CAKI-1; [3]) of 63.1 µM and a GI50 (HCT-116) of 2.34 µM. It also gave an IC50 (HCT-116) of 3.24 µM, an IC (TGI) (HCT-116) of 6.46 µM and a CC50 (HCT-116; [3]) of 28.8 µM.

Source: patent US20240109903A1, “SUBSTITUTED HETEROCYCLES FOR TREATING CANCER” (Northwestern University, priority 2022, published 2024)
